Experimental data as given in patent US20140193341A1, “HUMAN INDUCED NEURONAL CELLS” (priority 2011, published 2014).
Entries after “also recorded” stand apart in the source; their conditions may differ.

Experiments:
Format in all cases: cell-based, human
[1] = tested on: glutamatergic receptor; assay: Spontaneous postsynaptic currents of hiN cells in murine glial coculture; conditions: hiN cells held at −70 mV, murine glial monolayer coculture; NBQX/APV bath application
[2] = tested on: AMPA and NMDA glutamatergic receptors; assay: Glutamate puff evoked postsynaptic currents in hiN cells; conditions: glutamate 1 mM puff, NBQX 20 μM and APV 50 μM applied together
[3] = tested on: hiN cells integrated into host brain; assay: Voltage-clamp recording of transplanted hiN cells in acutely prepared mouse brain slices; conditions: for spontaneous excitatory postsynaptic currents (sEPSCs) under glutamatergic block: NBQX 20 μM and APV 50 μM
[4] = tested on: APP-positive puncta in hiN cells; assay: APP immunostaining of hiN cells, APP-positive puncta area per cell; conditions: DAPT 10 μM, 18 hr
Protocol: Cells were fixed in 4% paraformaldehyde for 10 min at room temperature, followed by rinsing 3 times with phosphate-buffered saline (PBS). Cells were then permeabilized with 0.1% Triton X-100 in 1×PBS for 10 min at room temperature. After again rinsing 3 times with PBS, cells were incubated with blocking buffer containing 10% goat serum and 10 mg/ml BSA at room temperature for 1 hr. All primary antibodies were diluted in PBS. Cells were incubated with primary antibodies as listed at 4° C. for 12-16 hr, followed by the corresponding secondary antibody solutions in 37° C. for 1 hr. Cells were rinsed with 1×PBS three times followed by mounting of coverslips with anti-fade solution (Invitrogen). […]
Imaging was performed by laser-scanning confocal microscopy with a 63×/1.4 objective (LSM510, Can Zeiss) or by epifluorescence microscope (Olympus 1×71; Japan). hiN cell counts and fluorescence intensities were quantified by taking 10 to 35 images of randomly selected views per well. Subsequently, images were analyzed for cell counts and fluorescent intensity using Image J 1.42q software (National Institute of Health, USA). […]

[5] = tested on: γ-secretase; assay: Aβ ELISA of media from hiN cultures treated with γ-secretase inhibitor; conditions: DAPT 10 μM; hiN cell cultures
Protocol: APP ELISA was performed using a human APP ELISA kit (Invitrogen, Camarillo, Calif.), according to the manufacturer's instruction. Absorbance was read on a VersaMax ELISA Microplate Reader (Molecular Devices, Inc. Sunnyvale, Calif.) at 450 nm. The amount of APP was normalized to the total cell protein (determined with the DC Protein Assay Reagent kit; Bio-Rad, Hercules, Calif.). sAPPIβ and Aβ ELISA were performed on supernatant media from hiN cell cultures at 21 days after viral transduction. […] was performed using BetaMarkTM sAPP Beta ELISA kit (Covance, Princeton, N.J.), according to the manufacturer's instruction. The chemiluminescence was read on a microplate luminometer ([…] Plus, TECAN, Männedorf Switzerland). Aβ quantification was performed by ELISA as described previously (Cirrito et al., 2003). Media was conditioned for 48 hr prior to harvesting. Samples were analyzed for Aβ40 or Aβ42 using specific sandwich ELISAs. Briefly, Aβ40, and Aβ42 were captured using monoclonal antibodies targeted against amino acids 35-40 (HJ2.0), or 33-42 (HJ7.4) of Aβ, respectively. The antibodies HJ2.0, HJ5.1 and HJ7.4 were gifts from David M. Holtzman. […] All assays were developed using Super Slow ELISA TMB (Sigma) and read on a VersaMax ELISA Microplate Reader (Molecular Devices, Inc. Sunnyvale, Calif.) at 650 nm. […]

[6] = tested on: secreted Aβ40 and Aβ42; assay: Aβ40/Aβ42 sandwich ELISA of hiN cell culture media with ibuprofen treatment; conditions: ibuprofen 250 μM
Protocol: sAPPβ ELISA was performed using BetaMar sAPP Beta ELISA, according to the manufacturer's instruction. Aβ quantification was performed by ELISAs (Cirrito et al., 2003). Media was conditioned for 48 hr prior to harvesting. Samples were analyzed for Aβ40 or Aβ42 using specific sandwich ELISAs. Briefly, Aβ40, and Aβ42 were captured using monoclonal antibodies targeted against amino acids 35-40 (HJ2.0), or 33-42 (HJ7.4) of Aβ, respectively. The antibodies HJ2.0, HJ5.1 and HJ7.4 were used. For Aβ40 and Aβ42 assays, a biotinylated central domain monoclonal antibody (HJ5.1) followed by streptavidin-poly-HRP-40 was used for detection. Assays were developed using Super Slow ELISA TMB and read on a VersaMax ELISA Microplate Reader. Aβ40, and Aβ42 standard curves were generated using purified peptides. The amount of Aβ was normalized to the cell density per well (relative to UND line as indicated in legend), and was expressed as pg/ml.

[7] = tested on: Na+ channel
[8] = tested on: sodium channel
[9] = tested on: GABA receptors; assay: GABA puff evoked currents in hiN cells; conditions: GABA 1 mM puff, picrotoxin 50 μM

## N[C@H](CCCP(=O)(O)O)C(=O)O [APV, D(−)-2-amino-5-phosphonovaleric acid]
[1]
  spontaneous postsynaptic currents in glial coculture: sensitive; also recorded: abolished
[2]
  glutamate-mediated postsynaptic currents: could be blocked; also recorded: sensitive
[3]
  spontaneous excitatory postsynaptic currents (sEPSCs) under glutamatergic block: suppressed; also recorded: drastically reduced

## C[C@H](NC(=O)Cc1cc(F)cc(F)c1)C(=O)N[C@H](C(=O)OC(C)(C)C)c1ccccc1 [DAPT]
[4]
  total APP-positive puncta area per cell, UND hiN cells: partially phenocopied; also recorded: significant increase
[5]
  production of Aβ in media: suppressed

## NS(=O)(=O)c1cccc2c1c([N+](=O)[O-])cc1nc(O)c(O)nc12 [NBQX, 2,3-dihydroxy-6-nitro-7 sulphamoyl-benzo[f]quinoxaline-2,3-dione]
[1]
  spontaneous postsynaptic currents in glial coculture: sensitive; also recorded: abolished
[2]
  glutamate-mediated postsynaptic currents: could be blocked; also recorded: sensitive
[3]
  spontaneous excitatory postsynaptic currents (sEPSCs) under glutamatergic block: suppressed; also recorded: drastically reduced

## CC(C)Cc1ccc(C(C)C(=O)O)cc1 (centres unmarked) [ibuprofen]
[6]; FAD (Presenilin mutant) hiN cell cultures
  increased Aβ40 and Aβ42 generation in FAD hiN cell cultures: failed to suppress; also recorded: resistant
[6]; SAD hiN cell cultures
  elevated levels of secreted Aβ40 and Aβ42 in SAD hiN cell cultures: suppressed

## NC1=N[C@H](O)[C@H]2[C@H]3O[C@]4(O)O[C@@H]([C@@H](O)[C@@]2(N1)[C@@H]4O)[C@]3(O)CO [tetrodotoxin]
[7]
  fast inward Na+ currents: sensitive
[8]
  depolarization-induced action potentials: could be inhibited; also recorded: could be blocked

## picrotoxin
[9]
  GABA evoked currents: sensitive
[3]; picrotoxin 50 μM
  frequency and amplitude of spontaneous excitatory postsynaptic currents (sEPSCs): increased in frequency and amplitude
